Counter-ions that a name gives are not always drawn.
Assays:
rats = assay: Effect on heart rate in rats; assay type: in vivo, rat; conditions: anesthetized rats
Protocol: The effect of the test substances on heart rate was investigated in two rats with an average weight of 250 to 300 gm for each dose. The rats were anesthetized with pentobarbital (50 mg/kg i.p. and 20 mg/kg s.c.). The test substances were injected in aqueous solution into the jugular vein (0.1 ml/100 gm). The blood pressure was measured using a cannula inserted in a carotid artery and the heart rate was recorded from an ECG (IInd or IIIrd reading) obtained using needle electrodes. The heart rate of the animals in the control period was between 350 and 400 beats per minute (b/min).

cats = assay: Effect on heart rate in cats; assay type: in vivo, cat; conditions: anesthetized cats, 1.0 mg/kg i.v.; for Half-life: heart rate effect
Protocol: The cats were anesthetized with Nembutal (30 mg/kg i.p.) and chloralose urethane (40 mg/ml of chloralose+200 mg/ml of urethane, as required). The compound to be tested was injected in aqueous solution into the vena saphena or into the duodenum. The heart rate was recorded before and after the admiministration of the substance by means of a Grass tachograph from the electrocardiagram (taken from and chest wall) on a Grass polygraph.

Acute toxicity in mice = conditions: mouse, in vivo, observation period 14 days
Protocol: The acute toxicity of the test compound was determined in mice (observationperiod: 14 days) after intravenous and peroral administration: […]

SMILES | Reduction in Heart Rate (20 Minutes) After Application of the Compound (rats; 1.0 mg/kg i.v.) [Beats/Minutes] | Reduction in Heart Rate (20 Minutes) After Application of the Compound (rats; 2.5 mg/kg i.v.) [Beats/Minutes] | Reduction in Heart Rate (20 Minutes) After Application of the Compound (rats; 5.0 mg/kg i.v.) [Beats/Minutes] | Reduction in Heart Rate (cats) [%] | Half-life (cats) [min] | further results
COc1cc2c(cc1OC)CC(=O)N(CCCN(C)CCCCc1ccc(N(C)C)cc1)CC2 [Q, 1-[7,8-Dimethoxy-1,3,4,5-tatrahydro-2H-3-benzazepin-2-on-3-yl]-3-N-methyl-N-(4-{4-dimethylaino-phenyl}butyl)-amino]-propane hydrobromide] | -94 | -91 | -123 | – | – | –
COc1ccc(C(O)CN(C)CCCN2CCc3cc(OC)c(OC)cc3CC2=O)cc1OC (stereo not shown) [N, 1-[7,8-Dimethoxy-1,3,4,5-tetrahydro-2H-3-benzazepin-2-on-3-yl]-3-[N-methyl-N-(2-hydroxy-2-{3,4-dimethoxyphenyl}-ethyl)-amino]-propane] | – | -137 | -173 | – | – | –
COc1ccc(CCN(C)CCCN2CCc3cc(OC)c(OC)cc3CC2=S)cc1OC [M, 1-[7,8-Dimethoxy-1,3,4,5-tetrahydro-2H-3-benzazepin-2-thion-3-yl]-N-[N-methyl-N-(2-{3,4-dimethoxy-phenyl}-ethyl)-amino]-propane] | -73 | -134 | -255 | – | – | –
COc1cc2c(cc1OC)CC(=O)N(CCCN(C)CCc1cc(Cl)c(N)c(Cl)c1)CC2 [F, 1-[7,8-Dimethoxy-1,3,4,5-tetrahydro-2H-3-benzazepin-2-on-3-yl]-3-[N-methyl-N-(2-{4-amino-3,5-dichloro-phenyl}-ethyl)-amino]-propane] | – | – | – | -51 | 120 | –
COc1cc2c(cc1OC)CC(=O)N(CCCN(C)CCCc1cc(Cl)c(N)c(Cl)c1)CC2 [T, 1-[7,8-Dimethoxy-1,3,4,5-tetrahydro-2H-3-benzazepin-2-on-3-yl]-3-[N-methyl-N-(3-{4-amino-3,5-dichlorophenyl}-propyl)-amino]-propane] | – | – | -175 | – | – | –
COc1ccc(CCN(C)CCCN2CCc3cc(OC)c(OC)cc3C(O)C2=O)cc1OC (stereo not shown) [O] | -83 | -73 | -117 | – | – | –
COc1ccc(CCN(C)CCCN2C=Cc3cc(OC)c(OC)cc3CC2=O)cc1OC.Cl [B, 1-[7,8-Dimethoxy-1,3-dihydro-2H-3-benzazepin-2-on-3-yl]-3-[N-methyl-N-(2-{3,4-dimethoxy-phenyl}-ethyl)-amino]-propane hydrochloride] | – | – | – | -45 | 120 | –
COc1ccc(CCN(C)CCCN2CCc3cc(OC)c(OC)cc3NC2=O)cc1OC [D, 1-[7,8-Dimethoxy-1,3,4,5-tetrahydro-2H-1,3-benzodiazepin-2-on-3-yl]-3-[N-methyl-(2-{3,4-dimethoxy-phenyl}-ethyl)-amino]-propane] | – | – | – | -41 | 80 | –
COc1ccc(CCN(C)CCCN2CCc3cc(OC)c(OC)cc3C(=O)C2=O)cc1OC [C, 1-[7,8-Dimethoxy-1,3,4,5-tetrahydro-2H-3-benzazepine-1,2-dion-3-yl]-3-[N-methyl-(2-}3,4-dimethoxy-phenyl}-ethyl)-amino]-propane hydrochloride] | – | – | – | -44 | 90 | –
COc1cc2c(cc1OC)CC(=O)N(CCCN(C)CCc1ccccc1)CC2.Cl.Cl [R, 1-[7,8-Dimethoxy-1,3,4,5-tetrahydro-2H-3-benzazepin-2-on-3-yl]-3-[N-methyl-N-(2-phenyl-ethyl)-amino]-propane dihydrochloride] | -80 | -110 | -135 | – | – | –
COc1ccc(CCNCCCN2CCc3cc(OC)c(OC)cc3CC2=O)cc1OC.Cl [E, 1-[7,8-Dimethoxy-1,3,4,5-tetrahydro-2H-3-benzazepin-2-on-3-yl]-3-[N-(2-{3,4-dimethoxy-phenyl}-ethyl)-amino]-propane hydrochloride] | – | – | – | -45 | 90 | –
COc1ccc(CCCN(C)CCCN2CCc3cc(OC)c(OC)cc3CC2=O)cc1OC.Cl [L, 1-[7,8-Dimethoxy-1,3,4,5-tetrahydro-2H-3-benzazepin-2-on-3-yl]-3-[N-methyl-N-(3-{3,4-dimethoxy-phenyl}-propyl)-amino]-propane hydrochloride] | -51 | -85 | -183 | – | – | –
COc1cc(CCCCCN(C)CCCN2CCc3cc(OC)c(OC)cc3CC2=O)cc(OC)c1 [S, 1-[7,8-Dimethoxy-1,3,4,5-tetrahydro-2H-3-benzazepin-2-on-3-yl]-3-[N-methyl-N-(5-{3,5-dimethoxy-phenyl}-pentyl)-amino]-propane] | – | – | -18 | – | – | –
COc1ccc(CCN(C)CCCN2CCCc3cc(OC)c(OC)cc3C2=O)cc1OC [U, 1-[7,8-Dimethoxy-1,3,4,5-tetrahydro-5H-2-benzazepin-1-on-2-yl]-3-[N-methyl-N-(2-{3,4-dimethoxy-phenyl}-ethyl)-amino]-propane hydrochloride, reference compound] | – | – | -18 | -8.2 | 13 | –
COc1cc2c(cc1OC)CC(=O)N(CCCN(C)CCc1ccc(N)c([N+](=O)[O-])c1)CC2 [P, 1-[7,8-Dimethoxy-1,3,4,5-tetrahydro-2H-3-benzazepin-2-on-3-yl]-3-[N-methyl-N-(2-{4-aino-3-nitro-phenyl}-ethyl)-amino]-propane hydrochloride] | – | – | -130 | – | – | –
COc1ccc(CCN(C)CCCN2CCc3cc(OC)c(OC)cc3CC2=O)cc1OC.Cl.Cl [A, 1-[7,8-Dimethoxy-1,3,4,5-tetrahydro-2H-3-benzazepin-2-on-3-yl]-3-[N-methyl-N-(2-{3,4-dimethoxy-phenyl}-ethyl)-amino]-propane dihydrochloride] | – | – | – | -55 | 120 | LD50 at 336 h (Acute toxicity in mice; iv): 89 mg/kg; LD50 at 336 h (Acute toxicity in mice; po): 1350 mg/kg

Source: patent US4490369A, “Benzazepine derivatives, their pharmaceutical compositions and method of use” (Dr. Karl Thomae Gesellschaft mit beschrankter Haftung, priority 1981, dated 1984)
